Laboratory results as given in PubChem BioAssay AID330 (DTP/NCI, 2004).
“And” between values parts separate entries of the source, which are not always exact repeats. Identical values can stand only once. Inconclusive results and toxic doses are left out.

Tested on: P388 leukemia ip, CD2F1 mice, survival T/C
Assay: NCI In Vivo Anticancer Drug Screen. Data for tumor model P388 Leukemia (intraperitoneal) in CD2F1 (CDF1) mice
Details: endpoint: median survival time, higher = longer survival
How it was run: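 Mice carrying the transplanted tumor received test compound or vehicle. Survival was recorded in each group, and the value is the treated-group measurement divided by that of the vehicle-treated control group.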

[1] = dose: 50.0 mg/kg/injection, schedule: Q01DX005 (ip), vehicle: Klucel (hydroxypropylcellulose) (HPC)
[2] = dose: 100.0 mg/kg/injection, schedule: Q01DX005 (ip), vehicle: Klucel (hydroxypropylcellulose) (HPC)
[3] = dose: 200.0 mg/kg/injection, schedule: Q01DX005 (ip), vehicle: Klucel (hydroxypropylcellulose) (HPC)
[4] = dose: 50.0 mg/kg/injection, schedule: Q01DX009 (ip), vehicle: saline with Tween-80
[5] = dose: 100.0 mg/kg/injection, schedule: Q01DX009 (ip), vehicle: saline with Tween-80
[6] = dose: 200.0 mg/kg/injection, schedule: Q01DX009 (ip), vehicle: saline with Tween-80
[7] = dose: 60.0 mg/kg/injection, schedule: Q01DX005 (ip), vehicle: saline with Tween-80
[8] = dose: 120.0 mg/kg/injection, schedule: Q01DX005 (ip), vehicle: saline with Tween-80
[9] = dose: 240.0 mg/kg/injection, schedule: Q01DX005 (ip), vehicle: saline with Tween-80
[10] = dose: 50.0 mg/kg/injection, schedule: Q01DX009 (ip), vehicle: Klucel (hydroxypropylcellulose) (HPC)
[11] = dose: 100.0 mg/kg/injection, schedule: Q01DX009 (ip), vehicle: Klucel (hydroxypropylcellulose) (HPC)
[12] = dose: 200.0 mg/kg/injection, schedule: Q01DX009 (ip), vehicle: Klucel (hydroxypropylcellulose) (HPC)

Nc1ncnc2c1ccn2Cc1c(F)cccc1Cl was tested, and the T/C (dose: 50.0 mg/kg/injection, schedule: Q01DX005 (ip), vehicle: distilled water + alcohol) was 100 % of control, the T/C (dose: 100.0 mg/kg/injection, schedule: Q01DX005 (ip), vehicle: distilled water + alcohol) was 101 % of control and the T/C (dose: 200.0 mg/kg/injection, schedule: Q01DX005 (ip), vehicle: distilled water + alcohol) was 105 % of control.

COC(=O)/C=C(\C=C/C(=O)O)C(=O)O was tested, and the T/C [1] was 104 % of control, the T/C [2] was 100 % of control and the T/C [3] was 95 % of control.

O=[N+]([O-])c1cnc(-c2ccc(F)cc2)n1CCO was tested, and the T/C [4] was 100 % of control, the T/C [5] was 105 % of control and the T/C [6] was 112 % of control.

In the case of O=C1c2ccccc2C(Br)CCC1Br (stereo not given), the T/C (dose: 100.0 mg/kg/injection, schedule: Q01DX009 (ip), vehicle: distilled water + Tween-80 + alcohol) is reported as 115 % of control, the T/C (dose: 200.0 mg/kg/injection, schedule: Q01DX009 (ip), vehicle: distilled water + Tween-80 + alcohol) is reported as 115 % of control and the T/C (dose: 400.0 mg/kg/injection, schedule: Q01DX009 (ip), vehicle: distilled water + Tween-80 + alcohol) is reported as 113 % of control.

With CCCCCN(CCCCC)c1nsc(Cl)n1 the T/C (dose: 25.0 mg/kg/injection, schedule: Q01DX009 (ip), vehicle: saline with Tween-80) was 108 % of control, the T/C [4] was 103 % of control and the T/C [5] was 100 % of control.

With COC(=O)CN1C(=O)c2cccc3cc([N+](=O)[O-])cc(c23)C1=O the T/C [7] was 100 % of control, the T/C [8] was 98 % of control and the T/C [9] was 90 % of control.

For CCOC(=O)c1ccccc1SC(C[N+](=O)[O-])c1ccccc1 (stereo not given), the T/C [10] was 105 % of control, the T/C [11] was 110 % of control and the T/C [12] was 110 % of control.

In the case of Cc1nnc2c3c4c(sc3nc(C)n12)CCCC4, the T/C [1] is reported as 94 % of control, the T/C [2] is reported as 98 % of control and the T/C [3] is reported as 104 % of control.

Nc1nnc(-c2ccc(Cl)cc2)o1 was tested, and the T/C [7] was 100 % of control, the T/C [8] was 110 % of control and the T/C [9] was 103 % of control.

With NNc1nncn1N the T/C (dose: 50.0 mg/kg/injection, schedule: Q01DX009 (ip), vehicle: saline) was 104 % of control and 91 % of control, the T/C (dose: 100.0 mg/kg/injection, schedule: Q01DX009 (ip), vehicle: saline) was 104 % of control and 89 % of control and the T/C (dose: 200.0 mg/kg/injection, schedule: Q01DX009 (ip), vehicle: saline) was 86 % of control and 95 % of control.

In the case of Oc1cc(Cl)c(O)c(-c2ccccc2)c1Cl, the T/C (dose: 50.0 mg/kg/injection, schedule: Q01DX005 (ip), vehicle: saline with Tween-80) is reported as 102 % of control, the T/C (dose: 100.0 mg/kg/injection, schedule: Q01DX005 (ip), vehicle: saline with Tween-80) is reported as 102 % of control and the T/C (dose: 200.0 mg/kg/injection, schedule: Q01DX005 (ip), vehicle: saline with Tween-80) is reported as 90 % of control.

CCc1nc(N)nc(N)c1-c1ccc(N(C)C2CCCCC2)c([N+](=O)[O-])c1 was tested, and the T/C [7] was 105 % of control and 106 % of control, the T/C [8] was 115 % of control and the T/C [9] was 103 % of control. The T/C (dose: 480.0 mg/kg/injection, schedule: Q01DX005 (ip), vehicle: saline with Tween-80) was 168 % of control.

CC(F)C(C)C(N)C(=O)O (stereo not given) was tested, and the T/C [4] was 86 % of control, the T/C [5] was 91 % of control and the T/C [6] was 99 % of control.

With Cc1c(NC(=O)C(=O)O)ccc2c(=O)cc(C(=O)O)[nH]c12 the T/C [10] was 102 % of control and 118 % of control, the T/C [11] was 109 % of control and 117 % of control and the T/C [12] was 111 % of control and 124 % of control.

With CC1=C(c2ccccc2)C2(c3ccccc3)[N-][n+]3c(ccc4ccccc43)C2(C)C1=O (stereo not given) the T/C [1] was 97 % of control and the T/C [2] was 97 % of control.
